Among the test systems are CAKI-1 renal; HOP-62 NSCLC; HOP-92 NSCLC; NCI-H460 lung; NCI-H522 lung; SF-539 CNS; SR leukemia; SW-620 colon; MDA-MB-231 breast; RXF 393 renal.
Assay in all cases: inhibition of tumour cell growth, NCI panel, 48 h

Structures are written as SMILES.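 Values below derive from 48-hour exposures of cells grown in 96-well plates, with endpoints linearly interpolated between the two concentrations bracketing the appropriate inhibition level. GI50 = concentration required for 50% inhibition of growth. At the TGI there is no net growth.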

The source of these data is PubChem BioAssay (NCI).

On to `c1ccc(SC23C4C5C6C4C2C6C53)nc1` (stereo not given), for which the TGI in the test with CAKI-1 renal, in the test on HOP-62 NSCLC, in the test on HOP-92 NSCLC, in the test on NCI-H460 lung, in the test on NCI-H522 lung and in the test with SF-539 CNS was over 100 µM in each case. Further, the TGI with SR leukemia was over 35 µM; in the test on SW-620 colon, over 100 µM.

Turning to `C=C1C(=O)O[C@H]2[C@H]1CC/C(COC(=O)OC/C1=C/CC[C@@]3(C)O[C@H]3[C@H]3OC(=O)[C@@H](CN(C)C)[C@@H]3CC1)=C\CC[C@@]1(C)O[C@@H]21`, the GI50 in the test on HOP-62 NSCLC was 12.2 µM; with HOP-92 NSCLC, 0.497 µM; in the test on MDA-MB-231 breast, 1.49 µM; in the test with NCI-H460 lung, 5.38 µM; with NCI-H522 lung, 0.214 µM; with RXF 393 renal, 0.306 µM. The GI50 is 1.8 µM in the test on SF-539 CNS and 0.445 µM in the test on SW-620 colon. In addition, the TGI turned out to be 26.5 µM in the test with HOP-62 NSCLC; 1.98 µM with HOP-92 NSCLC; 3.07 µM in the test with MDA-MB-231 breast; 19.9 µM in the test on NCI-H460 lung; 0.513 µM in the test with NCI-H522 lung; 1.35 µM with RXF 393 renal. In addition, the TGI with SF-539 CNS turned out to be 4.4 µM; with SW-620 colon, 1.85 µM.

Take `CCCCCCCCCCCCCCCCCCNC(=S)/N=C/c1c(O)c2ccccc2[nH]c1=O`: the TGI amounted to 31.6 µM in the test on CAKI-1 renal; 33 µM in the test on HOP-62 NSCLC; 32.7 µM with HOP-92 NSCLC; 30.3 µM in the test on MDA-MB-231 breast; 32.6 µM in the test on NCI-H460 lung; 53.5 µM in the test with RXF 393 renal. For the same molecule, the TGI in the test on SF-539 CNS was 43.1 µM; in the test on SW-620 colon, 42.4 µM.

In the case of `COc1cc(C(=O)O[C@H](C(=O)NCCN(C)CCNC(=O)[C@@H](OC(=O)c2cc(OC)cc3c(C)cccc23)[C@]2(C)CO2)[C@]2(C)CO2)c2cccc(C)c2c1`, the GI50 in the test with CAKI-1 renal was under 0.01 µM; in the test on HOP-62 NSCLC, 0.893 µM; in the test on HOP-92 NSCLC, 0.0192 µM; in the test with MDA-MB-231 breast, 0.264 µM; in the test on NCI-H460 lung, under 0.01 µM; with SF-539 CNS, under 0.01 µM. Further, the GI50 with SW-620 colon is under 0.01 µM. Besides, the TGI with CAKI-1 renal stood at 0.0477 µM; with HOP-62 NSCLC, 7.85 µM; in the test with HOP-92 NSCLC, 0.173 µM; with MDA-MB-231 breast, 1.58 µM; in the test with NCI-H460 lung, 1.61 µM; with SF-539 CNS it was 0.0504 µM. Further, the TGI with SW-620 colon turned out to be 0.152 µM.

On to `COc1cc(C(C)c2cc3c(cc2OCCNC(=O)COc2cc4c(cc2C(C)c2cc(OC)c(OC)c(OC)c2)OCO4)OCO3)cc(OC)c1OC` (stereo not given), for which the TGI in the test on CAKI-1 renal is over 100 µM; in the test on HOP-62 NSCLC it was over 100 µM; in the test on NCI-H460 lung, 49 µM; in the test on NCI-H522 lung, 92.6 µM; in the test with RXF 393 renal, over 100 µM; with SF-539 CNS, over 100 µM. Besides, the TGI in the test on SR leukemia and in the test on SW-620 colon was over 100 µM in each case.

In the case of `CCOC(=O)C(Cc1ccccc1)NC(=O)c1[nH]cnc1/N=N/N(C)C` (stereo not given), the TGI with CAKI-1 renal, in the test with HOP-62 NSCLC, in the test with NCI-H460 lung, with NCI-H522 lung, in the test on SF-539 CNS and in the test with SR leukemia was over 100 µM in each case. This molecule also gave a TGI in the test with SW-620 colon of over 100 µM.

As to `O=C1CNC(=O)c2[nH]cnc2N1`, the TGI in the test on NCI-H460 lung, in the test on RXF 393 renal, with SF-539 CNS, in the test with SR leukemia and in the test on SW-620 colon was over 100 µM each time.

As to `ClCc1ccccc1Cn1cnc2c(Cl)ncnc21`, the GI50 in the test on CAKI-1 renal is 1.83 µM; with HOP-62 NSCLC, 2.52 µM; with HOP-92 NSCLC, 1.49 µM; in the test on MDA-MB-231 breast, 3.04 µM; with NCI-H460 lung, 15.4 µM; with NCI-H522 lung, 1.82 µM. Moreover, the figures for the GI50 with RXF 393 renal, in the test with SF-539 CNS and with SW-620 colon were 0.442 µM, 10.7 µM and 1.78 µM, respectively. For the same molecule, the TGI with CAKI-1 renal amounted to 4.14 µM; in the test on HOP-62 NSCLC, 6.03 µM; in the test on HOP-92 NSCLC it was 4.27 µM; in the test with MDA-MB-231 breast, 7.41 µM; in the test with NCI-H460 lung, 44.5 µM; with NCI-H522 lung, 7.24 µM. For the same molecule, the results for the TGI with RXF 393 renal, with SF-539 CNS and in the test with SW-620 colon were 2.32 µM, 24.2 µM and 5.04 µM, respectively.

For the molecule `COc1cc(OC)c(OC)cc1/C=C/c1cnnc2ccccc12`, the TGI with CAKI-1 renal, in the test with HOP-62 NSCLC, in the test on HOP-92 NSCLC, in the test on MDA-MB-231 breast, with NCI-H460 lung and in the test on NCI-H522 lung was over 10 µM throughout. The TGI with RXF 393 renal, in the test with SF-539 CNS and in the test on SW-620 colon was over 10 µM each time.

In the case of `Cc1nc(N)nc(N)c1CCCc1ccccc1`, the TGI in the test on CAKI-1 renal was over 100 µM; in the test with HOP-62 NSCLC, 56.8 µM; in the test on HOP-92 NSCLC, 46.6 µM; in the test with NCI-H460 lung, over 100 µM; in the test with NCI-H522 lung it was over 100 µM; in the test with SF-539 CNS, over 100 µM. Besides, the TGI in the test with SR leukemia and in the test on SW-620 colon was over 100 µM each time.

With `CC(C)C(=O)c1c(C(F)(F)F)n([O-])c2cc(F)c(F)cc2[n+]1=O`, the GI50 in the test with CAKI-1 renal is 0.0626 µM; with HOP-62 NSCLC it was 0.0985 µM; with HOP-92 NSCLC, 0.191 µM; in the test on MDA-MB-231 breast, 0.176 µM; in the test on NCI-H460 lung, 0.811 µM; in the test on NCI-H522 lung, 1.96 µM. Besides, the results for the GI50 with RXF 393 renal, in the test with SF-539 CNS and with SW-620 colon were 0.456 µM, 0.381 µM and 0.13 µM, respectively. Further, the TGI with CAKI-1 renal is 0.5 µM; in the test on HOP-62 NSCLC, 0.602 µM; with HOP-92 NSCLC, 0.972 µM; in the test with MDA-MB-231 breast, 0.77 µM; in the test on NCI-H460 lung, 2.81 µM; in the test on NCI-H522 lung it was 6.22 µM. Besides, the TGI with RXF 393 renal amounted to 1.19 µM; in the test on SF-539 CNS, 1 µM; in the test with SW-620 colon, 0.277 µM.

`CC(C)=CC(=O)N[C@H]1CC[C@]2(C)C3CC[C@]4(C)C(C(C)N(C)C)=CCC4C3CCC2[C@H]1O` (stereo not given in full): the GI50 is 5.63 µM in the test with CAKI-1 renal; 2.61 µM in the test with HOP-62 NSCLC; 7.72 µM with HOP-92 NSCLC; 3.34 µM with MDA-MB-231 breast; 1.87 µM in the test with NCI-H460 lung; 5.61 µM in the test on NCI-H522 lung. For the same molecule, the GI50 is 2.7 µM in the test with RXF 393 renal, 1.59 µM with SF-539 CNS and 1.97 µM in the test with SW-620 colon. For the same molecule, the TGI in the test on CAKI-1 renal came out at 14.7 µM; in the test with HOP-62 NSCLC, 7.49 µM; in the test with HOP-92 NSCLC, 22 µM; with MDA-MB-231 breast, 9.79 µM; in the test on NCI-H460 lung, 3.75 µM; in the test with NCI-H522 lung, 20.7 µM. Besides, the TGI in the test on RXF 393 renal was 9.74 µM; with SF-539 CNS, 3.38 µM; with SW-620 colon, 4.55 µM.

As for `COC1=CC(c2ccc[nH]2)=N/C1=C\c1[nH]c(C)c(CC(=O)OCc2ccccc2)c1C`, the GI50 with CAKI-1 renal is 0.307 µM; with HOP-62 NSCLC it was 0.374 µM; with HOP-92 NSCLC, 0.244 µM; with MDA-MB-231 breast, 0.144 µM; in the test on NCI-H460 lung, 0.327 µM; in the test on NCI-H522 lung it was 0.273 µM. For the same molecule, the GI50 in the test with RXF 393 renal is 0.43 µM; in the test on SW-620 colon, 0.366 µM. Also, the TGI worked out at 2.27 µM with CAKI-1 renal; 2.27 µM with HOP-62 NSCLC; 0.81 µM in the test with HOP-92 NSCLC; 0.859 µM in the test on MDA-MB-231 breast; 1.72 µM in the test on NCI-H460 lung; 1.86 µM in the test on NCI-H522 lung. Moreover, the TGI in the test on RXF 393 renal worked out at 2.07 µM; in the test on SW-620 colon, 1.79 µM.

Regarding `Cc1ccc(S(=O)(=O)C2=c3nc4ccccc4cc3=C3C(=O)c4ccccc4C(=O)C32)cc1` (stereo not given), the TGI in the test with CAKI-1 renal, in the test on HOP-62 NSCLC, in the test on HOP-92 NSCLC, in the test with NCI-H460 lung, in the test with NCI-H522 lung and in the test on SF-539 CNS was over 100 µM in each case. In addition, the TGI with SR leukemia and with SW-620 colon was over 100 µM in each case.

As to `COC(=O)[C@@H](C)[C@H]1CC[C@@](C)(CCC2=C(C)CC3C=C(C)CCC3C2(C)C)OO1` (stereo not given in full), the TGI stood at 2.71 µM with CAKI-1 renal; 3.72 µM with HOP-62 NSCLC; 3.57 µM in the test on NCI-H460 lung; 0.331 µM in the test with NCI-H522 lung; 2.84 µM with RXF 393 renal; 3.27 µM with SF-539 CNS. For the same molecule, the TGI amounted to 3.87 µM in the test with SR leukemia and 1.01 µM in the test with SW-620 colon.

With `CN(C)CCCC1(c2ccc(F)cc2)OCc2cc(-c3cc4ccccc4s3)ccc21` (stereo not given), the GI50 was 1.29 µM with CAKI-1 renal; 1.6 µM with HOP-62 NSCLC; 1.33 µM in the test with HOP-92 NSCLC; 1.52 µM in the test with MDA-MB-231 breast; 1.93 µM in the test with NCI-H460 lung; 1.7 µM in the test on NCI-H522 lung. Further, the GI50 was 1.42 µM in the test on RXF 393 renal, 1.7 µM with SF-539 CNS and 1.74 µM in the test on SW-620 colon. The TGI with CAKI-1 renal worked out at 2.59 µM; with HOP-62 NSCLC it was 3 µM; in the test on HOP-92 NSCLC it was 2.95 µM; in the test on MDA-MB-231 breast, 2.95 µM; in the test with NCI-H460 lung, 3.67 µM; with NCI-H522 lung it was 3.28 µM. Further, the TGI in the test with RXF 393 renal was 2.86 µM; in the test on SF-539 CNS, 3.09 µM; with SW-620 colon, 3.4 µM.

Regarding `COc1ccc2c(c1)NC1(O)c3ccccc3C(=O)C21O` (stereo not given), the TGI in the test on CAKI-1 renal, in the test with HOP-62 NSCLC, with HOP-92 NSCLC, with NCI-H460 lung, in the test on NCI-H522 lung and in the test with SF-539 CNS was over 100 µM throughout. Besides, the TGI in the test on SR leukemia and in the test on SW-620 colon was over 100 µM each time.
